Results taken from ChEMBL document CHEMBL1770056, “2-Arylimidazo[2,1-b]benzothiazoles: a new family of amyloid binding agents with potential for PET and SPECT imaging of Alzheimer's brain” (Bioorg Med Chem Lett, 2011).

How the values were obtained:
[1] = Displacement of [3H]BTA-1 from amyloid beta 1 to 40 by competitive binding assay
[2] = Binding affinity to amyloid beta 1 to 40

| Structure (SMILES) | Ki [1] | Kd [2] |
| --- | --- | --- |
| CNc1ccc(-c2cn3c(n2)sc2cc(Br)ccc23)cc1 | 0.0345 µM | – |
| COc1ccc2c(c1)sc1nc(-c3ccc(N)cc3)cn12 | 0.0298 µM | – |
| Cc1ccc2c(c1)sc1nc(-c3ccc(Br)cc3)cn12 | 0.026 µM | – |
| [11CH3]Nc1ccc(-c2nc3ccc(O)cc3s2)cc1 [PITTSBURGH COMPOUND B] | 0.011 µM | 0.01 µM |
| Nc1ccc(-c2cn3c(n2)sc2cc(F)ccc23)cc1 | 0.133 µM | – |
| Fc1ccc2c(c1)sc1nc(-c3ccc(I)cc3)cn12 | 0.0419 µM | – |
| Cc1ccc2c(c1)sc1nc(-c3ccc(I)cc3)cn12 | 0.0177 µM | – |
| Nc1ccc(-c2cn3c(n2)sc2cc(Br)ccc23)cc1 | 0.0288 µM | – |
| COc1ccc2c(c1)sc1nc(-c3ccc(N(C)C)cc3)cn12 | 0.0586 µM | – |
| COc1ccc2c(c1)sc1nc(-c3ccc(Br)cc3)cn12 | 0.0094 µM | – |

The remaining compounds from weak to strong by Ki [1], led by results:

| Ki [1] | Kd [2] | Structure (SMILES) |
| --- | --- | --- |
| 0.0434 µM | – | CN(C)c1ccc(-c2cn3c(n2)sc2cc(Br)ccc23)cc1 |
| 0.0429 µM | – | CN(C)c1ccc(-c2cn3c(n2)sc2cc(F)ccc23)cc1 |
| 0.0381 µM | – | CNc1ccc(-c2cn3c(n2)sc2cc(F)ccc23)cc1 |
| 0.0211 µM | – | Brc1ccc2c(c1)sc1nc(-c3ccc(I)cc3)cn12 |
| 0.0109 µM | – | COc1ccc2c(c1)sc1nc(-c3ccc([123I])cc3)cn12 |
| 0.00609 µM | – | COc1ccc2c(c1)sc1nc(-c3ccc(N[11CH3])cc3)cn12 |
| 0.0045 µM | – | CNc1ccc(-c2nc3ccc(O)cc3s2)cc1 [PITTSBURGH COMPOUND B UNLABELLED] |
